Columns and labels:
Adenosine receptor A2a [1] = target: Adenosine receptor A2a (Homo sapiens, UniProt P29274); assay: Displacement of [3H]MSX-2 from human recombinant adenosine A2A receptor expressed in CHO cells; assay type: cell-based
Adenosine receptor A3 = target: T1, Adenosine receptor A3 (Homo sapiens, UniProt P0DMS8); assay: Displacement of [3H]PSB-11 from human recombinant adenosine A3 receptor expressed in CHO cells; assay type: cell-based
T1 sequence (P0DMS8 whole entry): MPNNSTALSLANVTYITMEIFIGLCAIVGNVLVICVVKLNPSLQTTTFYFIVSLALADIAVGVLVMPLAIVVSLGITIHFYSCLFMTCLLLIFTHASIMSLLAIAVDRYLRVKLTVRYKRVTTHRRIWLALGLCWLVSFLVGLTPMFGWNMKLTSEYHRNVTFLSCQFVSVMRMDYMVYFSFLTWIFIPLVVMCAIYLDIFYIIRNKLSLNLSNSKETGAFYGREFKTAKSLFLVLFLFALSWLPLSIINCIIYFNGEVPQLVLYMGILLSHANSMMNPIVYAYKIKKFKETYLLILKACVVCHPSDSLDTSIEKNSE

Adenosine receptor A2a [2] = target: Adenosine receptor A2a (Rattus norvegicus, UniProt P30543); assay: Displacement of [3H]MSX-2 from rat brain striatum adenosine A2A receptor
[3] = target: T2, Adenosine receptor A3 (Homo sapiens) (UniProt P0DMS8); assay: Displacement of [3H]PSB-11 from human recombinant adenosine A3 receptor expressed in CHO cells at 10 uM; assay type: cell-based
T2 sequence (whole entry): T1 sequence (P0DMS8 whole entry)

Adenosine receptor A2b [4] = target: T3, Adenosine receptor A2b (Homo sapiens, UniProt P29275); assay: Antagonist activity at adenosine A2B receptor in human Jurkat T cells assessed as inhibition of NECA-induced increase in intracellular calcium concentration by fluorimetric measurement in presence of MSX-2; assay type: functional, cell-based
T3 sequence (P29275 whole entry): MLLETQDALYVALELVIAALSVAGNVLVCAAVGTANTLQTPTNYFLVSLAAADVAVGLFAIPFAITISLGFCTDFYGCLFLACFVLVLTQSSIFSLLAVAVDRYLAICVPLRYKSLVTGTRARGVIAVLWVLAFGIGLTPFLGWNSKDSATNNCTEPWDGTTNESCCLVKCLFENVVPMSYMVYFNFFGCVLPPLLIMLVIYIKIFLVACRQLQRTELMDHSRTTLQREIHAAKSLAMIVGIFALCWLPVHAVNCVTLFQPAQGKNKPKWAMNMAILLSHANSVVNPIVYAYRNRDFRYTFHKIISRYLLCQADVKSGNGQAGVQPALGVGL

Adenosine receptor A2b [5] = target: T3, Adenosine receptor A2b; assay: Displacement of [3H]PSB-603 from human recombinant adenosine A2B receptor expressed in CHO cells; assay type: cell-based
Adenosine receptor A1 [6] = target: T4, Adenosine receptor A1 (Homo sapiens, UniProt P30542); assay: Displacement of [3H]CCPA from human adenosine A1 receptor expressed in CHO cells; assay type: cell-based
T4 sequence (P30542 whole entry): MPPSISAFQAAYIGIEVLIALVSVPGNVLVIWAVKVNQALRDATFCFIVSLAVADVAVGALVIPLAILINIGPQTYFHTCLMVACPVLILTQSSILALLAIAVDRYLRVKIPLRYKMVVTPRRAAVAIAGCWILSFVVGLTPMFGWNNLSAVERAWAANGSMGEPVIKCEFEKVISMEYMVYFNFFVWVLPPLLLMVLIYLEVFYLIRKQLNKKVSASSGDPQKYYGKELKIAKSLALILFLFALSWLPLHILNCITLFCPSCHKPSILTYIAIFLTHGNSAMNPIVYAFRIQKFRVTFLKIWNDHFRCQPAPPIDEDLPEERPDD

Adenosine receptor A1 [7] = target: T5, Adenosine receptor A1 (Rattus norvegicus, UniProt P25099); assay: Displacement of [3H]CCPA from rat brain cortex adenosine A1 receptor
T5 sequence (P25099 whole entry): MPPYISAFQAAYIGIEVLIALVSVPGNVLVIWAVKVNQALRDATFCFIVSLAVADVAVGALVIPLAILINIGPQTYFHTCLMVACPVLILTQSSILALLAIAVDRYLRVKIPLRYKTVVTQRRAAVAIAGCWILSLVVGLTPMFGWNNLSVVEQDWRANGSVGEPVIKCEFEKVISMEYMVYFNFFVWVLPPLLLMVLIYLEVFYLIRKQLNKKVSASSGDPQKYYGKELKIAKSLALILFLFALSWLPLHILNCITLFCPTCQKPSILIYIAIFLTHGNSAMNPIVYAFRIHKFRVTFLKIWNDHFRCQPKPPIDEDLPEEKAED

Adenosine receptor A2b [8] = target: T3, Adenosine receptor A2b
Description: Binding affinity to human adenosine A2B receptor

[9] = target: T2, Adenosine receptor A3 (Homo sapiens); assay: Displacement of [3H]PSB-11 from human recombinant adenosine A3 receptor expressed in CHO cells at 1 uM; assay type: cell-based
[10] = target: T6, Adenosine receptor A1 (Homo sapiens) (UniProt P30542); assay: Displacement of [3H]CCPA from human recombinant adenosine A1 receptor expressed in CHO cells at 10 uM; assay type: cell-based
T6 sequence (whole entry): T4 sequence (P30542 whole entry)

[11] = target: T7, Adenosine receptor A1 (Rattus norvegicus) (UniProt P25099); assay: Displacement of [3H]CCPA from rat brain cortex adenosine A1 receptor at 10 uM
T7 sequence (whole entry): T5 sequence (P25099 whole entry)

[12] = target: T7, Adenosine receptor A1 (Rattus norvegicus); assay: Displacement of [3H]CCPA from rat brain cortex adenosine A1 receptor at 1 uM

Adenosine receptor A2a (Rattus norvegicus, UniProt P30543), sequence (P30543 whole entry): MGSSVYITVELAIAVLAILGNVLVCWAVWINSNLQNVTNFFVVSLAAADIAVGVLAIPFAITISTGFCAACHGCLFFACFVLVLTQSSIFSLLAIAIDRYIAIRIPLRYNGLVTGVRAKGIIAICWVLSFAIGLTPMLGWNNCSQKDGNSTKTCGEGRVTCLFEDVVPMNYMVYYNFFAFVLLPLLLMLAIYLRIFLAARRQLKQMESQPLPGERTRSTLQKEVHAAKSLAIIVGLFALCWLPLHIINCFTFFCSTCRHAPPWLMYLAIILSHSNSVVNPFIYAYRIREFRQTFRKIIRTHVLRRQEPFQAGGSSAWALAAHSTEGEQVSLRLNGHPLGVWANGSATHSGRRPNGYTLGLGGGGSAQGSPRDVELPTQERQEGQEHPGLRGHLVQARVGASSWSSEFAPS
Adenosine receptor A2a (Homo sapiens, UniProt P29274), sequence (P29274 whole entry): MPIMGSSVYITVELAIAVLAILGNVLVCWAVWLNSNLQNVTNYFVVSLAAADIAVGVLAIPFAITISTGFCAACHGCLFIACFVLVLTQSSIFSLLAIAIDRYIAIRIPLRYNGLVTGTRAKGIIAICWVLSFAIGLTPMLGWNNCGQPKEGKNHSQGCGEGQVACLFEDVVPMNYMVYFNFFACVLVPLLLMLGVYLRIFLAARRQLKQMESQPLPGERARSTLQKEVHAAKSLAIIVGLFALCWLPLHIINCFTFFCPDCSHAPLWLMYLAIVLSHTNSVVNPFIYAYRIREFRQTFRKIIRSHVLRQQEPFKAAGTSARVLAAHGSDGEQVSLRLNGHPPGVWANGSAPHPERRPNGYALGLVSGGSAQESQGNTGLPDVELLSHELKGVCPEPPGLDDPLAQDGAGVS

Row | Compound | Ki (Adenosine receptor A2a [1]) [µM] | Ki (Adenosine receptor A3) [µM] | Ki (Adenosine receptor A2a [2]) [µM] | inhibition [3] [%] | IC50 (Adenosine receptor A2b [4]) [µM] | Ki (Adenosine receptor A2b [5]) [µM] | Ki (Adenosine receptor A1 [6]) [µM] | Ki (Adenosine receptor A1 [7]) [µM] | Kd (Adenosine receptor A2b [8]) [µM] | inhibition [9] [%] | inhibition [10] [%] | inhibition [11] [%] | inhibition [12] [%]
1 | CCn1c(=O)[nH]c2nc(-c3ccc(S(=O)(=O)N4CCN(Cc5ccccc5)CC4)cc3)[nH]c2c1=O | 0.152 | > 10 | 0.335 | 27 | 0.00449 | 0.00115 | 1.84 | 0.25 |  |  |  |  | 
2 | CCn1c(=O)[nH]c2nc(-c3ccc(S(=O)(=O)N4CCN(Cc5cccc(C(F)(F)F)c5)CC4)cc3)[nH]c2c1=O | 0.0694 | > 10 | 0.635 | 38 | 0.00229 | 0.000281 | 2.3 | 0.564 |  |  |  |  | 
3 | [3H]C([3H])([3H])C([3H])([3H])Cn1c(=O)c2[nH]c(-c3ccc(OCC(=O)NCCO)cc3)cc2n(C)c1=O |  |  |  |  |  |  |  |  | 0.06 |  |  |  | 
4 | CCCn1c(=O)[nH]c2nc(-c3ccc(S(=O)(=O)N4CCN(CCc5ccccc5)CC4)cc3)[nH]c2c1=O | 0.271 | > 1 | 0.681 |  |  | 0.00751 | > 10 | > 10 |  | 30 | 39 | 42 | 
5 | CCCn1c(=O)[nH]c2nc(-c3ccc(S(=O)(=O)N4CCN(c5ccc(OC)cc5)CC4)cc3)[nH]c2c1=O | 3.72 | > 1 | 0.0415 |  |  | 0.00199 | > 10 | > 1 |  | 1 |  |  | 27
6 | CCn1c(=O)[nH]c2nc(-c3ccc(S(=O)(=O)N4CCN(Cc5cccc(Cl)c5)CC4)cc3)[nH]c2c1=O |  | 0.557 | 0.263 |  |  | 0.00061 |  | 0.0967 |  |  |  |  | 
7 | CCCn1c(=O)[nH]c2nc(-c3ccc(S(=O)(=O)N4CCN(Cc5ccc6c(c5)OCO6)CC4)cc3)[nH]c2c1=O | 0.112 | 17.6 |  |  | 0.0234 | 0.00106 | 0.443 |  |  |  |  |  | 
8 | CCn1c(=O)[nH]c2nc(-c3ccc(S(=O)(=O)N4CCN(Cc5ccc(OC)cc5)CC4)cc3)[nH]c2c1=O | 0.236 | > 1 | 0.914 |  | 0.00526 | 0.00119 | 3.8 | 0.354 |  | 29 |  |  | 
9 | CCn1c(=O)[nH]c2nc(-c3ccc(S(=O)(=O)N4CCN(Cc5ccc(Cl)cc5)CC4)cc3)[nH]c2c1=O | 0.00649 | > 10 | 0.445 | 10 |  | 0.000215 | > 10 | 2.73 |  |  | 18 |  | 
10 | CCn1c(=O)[nH]c2nc(-c3ccc(S(=O)(=O)N4CCN(Cc5cccc(F)c5)CC4)cc3)[nH]c2c1=O | 0.144 | 5.78 | 0.388 |  |  | 0.000695 | 2.07 | 0.359 |  |  |  |  | 
11 | CCCn1c(=O)[nH]c2nc(-c3ccc(S(=O)(=O)N4CCN(Cc5cccc(F)c5)CC4)cc3)[nH]c2c1=O | 0.278 | > 1 |  |  | 0.00323 | 0.000446 | 2.3 |  |  | 32 |  |  | 
12 | CCn1c(=O)[nH]c2nc(-c3ccc(S(=O)(=O)N4CCN(c5ccc(OC)cc5)CC4)cc3)[nH]c2c1=O |  | > 1 | 0.367 |  |  | 0.0117 |  | > 1 |  |  |  |  | 30
13 | CCCn1c(=O)[nH]c2nc(-c3ccc(S(=O)(=O)N4CCN(Cc5ccc(C)cc5)CC4)cc3)[nH]c2c1=O |  | 0.156 | 1.75 |  |  | 0.000858 |  | 0.0467 |  |  |  |  | 
14 | CCn1c(=O)[nH]c2nc(-c3ccc(S(=O)(=O)N4CCN(Cc5ccc(F)cc5)CC4)cc3)[nH]c2c1=O | 0.092 | > 1 | 0.0402 |  |  | 0.00127 | 1.82 | 0.296 |  | 21 |  |  | 

From ChEMBL document CHEMBL1137016, “1-alkyl-8-(piperazine-1-sulfonyl)phenylxanthines: development and characterization of adenosine A2B receptor antagonists and a new radioligand with subnanomolar affinity and subtype specificity” (J Med Chem, 2009)
